Source: US6528501B1, “22s-hydroxycholesta-8, 14-diene derivatives with meiosis regulating activity” (Akzo Nobel N.V., priority 1998, dated 2003)

Key:
[1] = system: cumulus enclosed oocytes (CEO); experiment: Oocyte assay, cumulus enclosed oocytes (CEO): overcoming hypoxanthine maintained meiotic arrest; type: cell-based, mice (B6D2-F1, strain C57BL×DBA); details: 22 hours culture, hypoxanthine 4 mM, control value in parentheses
Protocol: (§1) The meiosis activating activity of the […]-hydroxycholesta-8,14-diene derivatives of the invention is measured in an in vitro oocyte assay as the ability to overcome the hypoxanthine maintained meiotic arrest in denuded oocytes (DO) or cumulus enclosed oocytes (CEO). Oocytes arrested in meiosis contain diffused chromosomes which are surrounded by an intact nuclear envelope known as the germinal vesicle (GV). Upon reinitiation of meiosis by the […] gonadotropin surge, the chromosomes recondense and the GV breaks down (GVBD). In vivo, the oocyte is exposed to hypoxanthine (HX), which maintains the oocyte arrested in the meiotic prophase. This meiotic arrest can be mimicked in vitro by addition of hypoxanthine to the culture medium. The agonistic activity of the meiosis activating substances is measured as the ability to overcome the hypoxanthine maintained meiotic arrest in denuded oocytes (DO) or cumulus enclosed oocytes (CEO), i.e. as the ability to induce meiotic resumption in vitro. Ovaries are obtained from immature female mice (B6D2-F1, strain C57BL×DBA). At the age of 19, 20 or 21 days the mice are injected subcutaneously with a single dose of 20 IU follicle stimulating hormone (Humegon, Organon, The Netherlands) in saline. Forty-eight hours after follicle stimulating hormone injection mice are killed by cervical dislocation. The ovaries are removed, freed of extraneous tissue and placed in a multidish containing 0.5 ml preparation medium at 37° C. […] At t=0 the number of oocytes with intact germinal vesicles (GV) or germinal vesicle break-down (GVBD) is counted under an inverted microscope with differential interference contrast equipment. […] At the end of the culture period the number of oocytes with GV or GVBD per group is counted. For statistical analysis the percentage germinal vesicle breakdown is calculated for each group in one block. These percentages are subjected to arcsin transformation, and differences between control and test compounds are analyzed by an ANOVA test for a randomized block design.

denuded oocytes (DO) = experiment: Oocyte assay, denuded oocytes (DO): overcoming hypoxanthine maintained meiotic arrest; type: cell-based, mice (B6D2-F1, strain C57BL×DBA); details: 22 hours culture, hypoxanthine 4 mM, control value in parentheses
Protocol: as §1

[2] = system: cultured cumulus enclosed and naked mouse oocytes; details: cited from earlier work
meiosis = details: disclosed in WO 98/28323; cited from earlier work

Row | Structure (SMILES) | % GVBD CEO assay exp. ([1]; 5 μM) | melting point [°C] | % GVBD DO assay exp. (denuded oocytes (DO); 5 μM) | ability to activate the resumption of meiosis [2] | also measured
1 | CC(C)=CC[C@H](O)[C@@H](C)[C@H]1CC=C2C3=C(CC[C@@]21C)[C@@]1(C)CC[C@H](O)C(C)(C)[C@@H]1CC3 [Example 2, (3β,5α,20S,22S )-4,4-Dimethylcholesta-8,14,24-triene-3,22-diol] | 73(2) % | 106 to 108 | 97(2) % | – | –
2 | CC(C)=CCC[C@@H](C)[C@H]1CC[C@H]2C3=C(CC[C@]12C)[C@@]1(C)CC[C@H](O)C(C)(C)[C@@H]1CC3 [(3β,5α,20R)-4,4-dimethylcholesta-8,24-dien-3-ol] | – | – | – | able to activate the resumption of meiosis | –
3 | CC(C)=CCC[C@@H](C)[C@H]1CC=C2C3=C(CC[C@@]21C)[C@@]1(C)CC[C@H](O)C(C)(C)[C@@H]1CC3 [FF-Mas, (3β,5α,20R)-4,4-dimethylcholesta-8,14,24-trien-3-ol] | – | – | – | able to activate the resumption of meiosis | % GVBD CEO assay exp. ([1]; 10 μM): 0(0) %; % GVBD DO assay exp. (denuded oocytes (DO); 10 μM): 84(7) %
4 | CC(C)CC[C@H](O)[C@@H](C)[C@H]1CC=C2C3=C(CC[C@@]21C)[C@@]1(C)CC[C@H](O)C(C)(C)[C@@H]1CC3 [Example 1, (3β,5α,20S ,22S)-4,4-Dimethylcholesta-8,14-diene-3,22-diol] | 6(3) % | 142 to 143 | 85(0) % | – | –
5 | CC(C)CC[C@@H](O)[C@@H](C)[C@H]1CC[C@H]2[C@@H]3CC=C4C[C@@H](O)CC[C@]4(C)[C@H]3CC[C@]12C [22R-hydroxycholesterol] | – | – | – | – | agonist/antagonist of meiosis activating substance (meiosis): antagonist
